{"source": "patent US20060286608A1", "about": "“Method for screening transglutaminase 2 inhibitor or activator” (priority 2005, published 2006)", "key": {"[1]": {"test_system": "TGase 2", "conditions": "microglia after 24 hours of exposure to LPS; previous study (Park et al. 2004); cited from earlier work"}, "[2]": {"test_system": "TGase 2", "assay": "Immunohistochemical staining of TGase 2 in rat brain after LPS injection", "type": "in vivo", "conditions": "rats killed 1 hour after peritoneal injection of 2.5 mg/kg LPS, compared with saline alone", "experimental": "Male Sprague-Dawley rats (Samtako, Osan, Korea) weighing 190-220 g were used as experimental models for intraperitoneal LPS injection as described previously. All experimental procedures were approved by the Seoul National University Care of Experimental Animals Committee. A solution of LPS (2.5 mg/kg) in 0.9% saline or 0.9% sterile saline was intraperitoneally injected into rats. To determine the effect of TGase inhibitors, rats were intraperitoneally injected with an R2 peptide (25 μM), an E2 peptide (25 μM, and dexamethasome (1 mg/kg) at 30 min before and at the time of LPS injection. Dexamethasome injection was used as a positive control.\nAfter 1 hour of intraperitoneal injection with LPS or saline, rats were anesthetized with 1% ketamine (30 mg/kg) and xylazine hydrochloride (4 mg/kg). Brains were perfused through the heart with saline containing 0.5% sodium nitrite and 10 units/ml heparin, followed by perfusion with 4% paraformaldehyde in PBS (0.1 M, pH 7.2). Brains were removed, rinsed with PBS, and cryoprotected in sucrose. Sections were prepared on a sliding microtome (40 μm) at the level of the subfornical organ. A monoclonal antibody (TG-100; NeoMarkers) to TGase 2 was used to subject TGase 2 to immunohistochemical staining. Brain sections were blocked with 1% BSA in PBS and incubated overnight with a primary antibody solution (1:200 dilution). […]"}, "[3]": {"test_system": "iNOS", "assay": "Semi-quantitative RT-PCR of mouse iNOS in BV-2 cells", "type": "cell-based", "conditions": "BV-2 cells treated with LPS", "experimental": "(§1) Semi-quantitative RT-PCR was performed using competitive mimic templates as internal controls. To prepare total RNA for RT-PCR, the cells were lysed with a TRIzol reagent. Samples of the total RNA were reverse-transcribed at 42° C. using the first strand synthesis kit (Promega) with avian myeloblastosis virus reverse transcriptase, and PCR was performed for the transcripts of iNOS and TGase 2 using corresponding specific primer sets. For each PCR, 1.5 mM MgCl2, 200 μM dNTP, 0.2 μM of each primer, 0.5 unit Taq polymerase, and a predetermined amount of a template were contained in a volume of 20 μl. The mimic templates of TGase 2 and iNOS were constructed by PCR. The mimics of mouse TGase 2 and mouse iNOS were prepared from 2014-2338 bp and 1451-2043 bp, respectively. RT-PCR products thus obtained were 526 bp for target TGase 2, 345 bp for mimic TGase 2, 593 bp for target iNOS, and 345 bp for mimic iNOS. For the RT-PCR, a primer set of SEQ. ID. NOS. 1 and 2, and a primer set of SEQ. ID. NOS."}, "[4]": {"test_system": "TGase 2", "assay": "TGase activity assay in LPS-activated BV-2 microglia", "type": "cell-based, murine", "conditions": "BV-2 microglia, after 24 hours of LPS treatment (100 μg/ml)", "experimental": "(§2) The BV-2 cells were grown and maintained in DMEM (Dulvecco's modified Eagle's medium) (Invitrogen) supplemented with 10% FCS (fetal calf serum) and penicillin/streptomycin at 37° C. in a humidified incubator under 5% CO2. To activate BV-2, the cells were treated with LPS (100 μg/ml; Sigma) for 24 hours. After LPS treatment for 24 hours with or without inducible nitric-oxide synthase(iNOS) inhibitor, 0, 50, and 100 μM N^G-monomethyl-L-arginine(L-NMMA) (Sigma), proteins were extracted with radioimmunoprecipitation assay buffer (1× phosphate-buffered saline (PBS), 1% Nonidet P-40, 0.5% sodium deoxycholate and 0.1% SDS) containing protease inhibitors from BV-2 harvest, followed by analysis for TGase 2 activity.\nEnzymatic activity was determined using a modified TGase assay method for measuring the incorporation of [1,4-^14C] putrescine into succinylated casein."}, "[5]": {"test_system": "TGase 2", "assay": "Semi-quantitative RT-PCR of mouse TGase 2 in BV-2 cells", "type": "cell-based", "conditions": "BV-2 cells treated with LPS", "experimental": "as §1"}, "[6]": {"test_system": "BV-2 microglia", "assay": "Nitric oxide measurement (Griess reaction) in LPS-activated BV-2 microglia", "type": "cell-based, murine", "conditions": "BV-2 microglia, after 24 hours of LPS treatment (100 μg/ml)", "experimental": "as §2\nAccumulated nitric oxide was measured in the cell supernatant after LPS treatment for 24 hours by Griess reaction. A 200 μl aliquot of the cell supernatant in each well of a 96-well microtiter plate was mixed with 100 μl of the Griess reagent [1% sulfanilamide (Fluka), 0.1% naphthylethylenediamine dihydrochloride (Fluka), 2.5% H3PO4], and the absorbance was read at 540 nm using a plate reader."}}}
{"substance": "lipopolysaccharide [LPS]", "values": [{"measurement": "TGase activity, increase", "setting": "[1]", "value": "about 5 fold"}, {"measurement": "TGase 2 expression in brains", "setting": "[2]", "value": "increased"}, {"measurement": "iNOS by RT-PCR, increase", "setting": "[3]", "value": 10, "unit": "fold"}, {"measurement": "TGase 2 activity, increase", "setting": "[4]", "value": 5, "unit": "fold"}, {"measurement": "TGase 2 by RT-PCR, increase", "setting": "[5]", "value": 3, "unit": "fold"}, {"measurement": "release of NO, increase", "setting": "[6]", "value": 10, "unit": "fold"}]}
